Patent US6586368B1, “Condensed heterocylic compounds and herbicides containing them” (Sumitomo Chemical Company, Limited, priority 1998, dated 2003)

Legend:
Type in all cases: in vivo
[1] = tested on: barnyardgrass (Echinochloa oryzicola); assay: Test Example 4: flooded paddy field treatment of barnyardgrass in pots, herbicidal activity; conditions: emulsifiable concentrate applied on the water surface of flooded pots, dosage of 1000 g/ha, 50 liters per are, plants 12 days after seeding, examined after 9 days in greenhouse
[2] = tested on: velvetleaf (Abutilon theophrasti); assay: Test Example 3: soil surface treatment, velvetleaf seeded in pots, herbicidal activity; conditions: emulsifiable concentrate sprayed over the surface of the soil after seeding, dosage of 2000 g/ha, 1000 liters per hectare, examined after 9 days in greenhouse
[3] = tested on: velvetleaf (Abutilon theophrasti); assay: Test Example 1: foliage treatment of velvetleaf in pots, herbicidal activity; conditions: emulsifiable concentrate sprayed over the foliage, dosage of 2000 g/ha, 1000 liters per hectare, plants 14 days after seeding, examined after 8 days in greenhouse

Compound	herbicidal activity: growth of barnyardgrass [1]	herbicidal activity: germination of velvetleaf [2]	herbicidal activity: growth of velvetleaf [3]
COc1cc2c(-n3c(=O)cc(C(F)(F)F)n(C)c3=O)coc2cc1[N+](=O)[O-] [Compound 1-86, 3-(5-Methoxy-6-nitrobenzo[b]furan-3-yl)-1-methyl-6-(trifluoromethyl)-1,2,3,4-tetrahydropyrimidine-2,4-dione]	completely inhibited the growth	completely inhibited the germination	completely inhibited the growth
CCOC(=O)C(Cl)Cc1ccc2occ(-n3c(=O)cc(C(F)(F)F)n(C)c3=O)c2c1 (stereo not drawn) [Compound 1-407]	completely inhibited the growth	completely inhibited the germination	completely inhibited the growth
CCOC(=O)C(C)Nc1ccc2occ(-n3c(=O)cc(C(F)(F)F)n(C)c3=O)c2c1 (stereo not drawn) [Compound 1-11]	completely inhibited the growth	completely inhibited the germination	completely inhibited the growth
CC(=O)N(C)c1ccc2occ(-n3c(=O)cc(C(F)(F)F)n(C)c3=O)c2c1 [Compound 1-28]		completely inhibited the germination	completely inhibited the growth
Cn1c(C(F)(F)F)cc(=O)n(-c2coc3cc(Cl)ccc23)c1=O [Compound 1-861]	completely inhibited the growth	completely inhibited the germination	completely inhibited the growth
Cn1c(C(F)(F)F)cc(=O)n(-c2coc3ccccc23)c1=O [Compound 1-1]	completely inhibited the growth	completely inhibited the germination	completely inhibited the growth
O=C1C2=C(CCCC2)C(=O)N1c1noc2ccccc12 [Compound 2-4]			completely inhibited the growth
Cc1cc2c(-n3c(=O)cc(C(F)(F)F)n(C)c3=O)coc2cc1[N+](=O)[O-] [Compound 1-361]	completely inhibited the growth	completely inhibited the germination	completely inhibited the growth
CN(C)c1ccc2occ(-n3c(=O)cc(C(F)(F)F)n(C)c3=O)c2c1 [Compound 1-9]	completely inhibited the growth	completely inhibited the germination	completely inhibited the growth
Cn1c(C(F)(F)F)cc(=O)n(-c2csc3cc(Cl)ccc23)c1=O [Compound 1-864]	completely inhibited the growth		
CC(=O)Nc1ccc2occ(-n3c(=O)cc(C(F)(F)F)n(C)c3=O)c2c1 [Compound 1-24]		completely inhibited the germination	completely inhibited the growth
Cn1c(C(F)(F)F)cc(=O)n(-c2coc3ccc(C(N)=O)cc23)c1=O [Compound 1-293]	completely inhibited the growth	completely inhibited the germination	completely inhibited the growth
Cn1c(C(F)(F)F)cc(=O)n(-c2csc3ccccc23)c1=O [Compound 1-3]	completely inhibited the growth	completely inhibited the germination	completely inhibited the growth
CCOC(=O)C(C)Sc1cc2c(-n3c(=O)cc(C(F)(F)F)n(C)c3=O)coc2cc1[N+](=O)[O-] (stereo not drawn) [Compound 1-246, Ethyl 2-({3-[3-methyl-2,6-dioxo-4-(trifluoromethyl)-1,2,3,6-tetrahydropyrimidin-1-yl]-6-nitrobenzo[b]furan-5-yl}thio)propanoate]	completely inhibited the growth	completely inhibited the germination	completely inhibited the growth
Cn1c(C(F)(F)F)cc(=O)n(-c2coc3ccc(Br)cc23)c1=O [Compound 1-75]	completely inhibited the growth	completely inhibited the germination	completely inhibited the growth
CCOC(=O)C(C)Oc1cc2c(-n3c(=O)cc(C(F)(F)F)n(C)c3=O)coc2cc1[N+](=O)[O-] (stereo not drawn) [Compound 1-131]	completely inhibited the growth	completely inhibited the germination	completely inhibited the growth
Cn1c(C(F)(F)F)cc(=O)n(-c2coc3cc([N+](=O)[O-])ccc23)c1=O [Compound 1-282]	completely inhibited the growth	completely inhibited the germination	completely inhibited the growth
Cn1c(C(F)(F)F)cc(=O)n(-c2coc3c(Cl)cc(Cl)cc23)c1=O [Compound 1-2, 3-(5,7-Dichlorobenzo[b]furan-3-yl)-1-methyl-6-(trifluoromethyl)-1,2,3,4-tetrahydropyrimidine-2,4-dione]	completely inhibited the growth	completely inhibited the germination	completely inhibited the growth
COc1ccc2occ(-n3c(=O)cc(C(F)(F)F)n(C)c3=O)c2c1 [Compound 1-5, 3-(5-Methoxybenzo[b]furan-3-yl)-1-methyl-6-(trifluoromethyl)-1,2,3,4-tetrahydropyrimidine-2,4-dione]	completely inhibited the growth	completely inhibited the germination	completely inhibited the growth
COc1cc2c(-n3c(=O)cc(C(F)(F)F)n(C)c3=O)coc2cc1Cl [Compound 1-84, 3-(6-Chloro-5-methoxybenzo[b]furan-3-yl)-1-methyl-6-(trifluoromethyl)-1,2,3,4-tetrahydropyrimidine-2,4-dione]	completely inhibited the growth	completely inhibited the germination	completely inhibited the growth
Cc1cc(Cl)c2occ(-n3c(=O)cc(C(F)(F)F)n(C)c3=O)c2c1 [Compound 1-358]	completely inhibited the growth	completely inhibited the germination	completely inhibited the growth
Cn1c(C(F)(F)F)cc(=O)n(-c2coc3ccc(NS(C)(=O)=O)cc23)c1=O [Compound 1-10]	completely inhibited the growth	completely inhibited the germination	completely inhibited the growth
Cn1c(C(F)(F)F)cc(=O)n(-c2coc3ccc(Cl)cc23)c1=O [Compound 1-4]	completely inhibited the growth	completely inhibited the germination	completely inhibited the growth
Cn1c(C(F)(F)F)cc(=O)n(-c2coc3cc([N+](=O)[O-])c(O)cc23)c1=O [Compound 1-82]	completely inhibited the growth	completely inhibited the germination	completely inhibited the growth
CNc1ccc2occ(-n3c(=O)cc(C(F)(F)F)n(C)c3=O)c2c1 [Compound 1-8]	completely inhibited the growth	completely inhibited the germination	completely inhibited the growth
CSc1cc2c(-n3c(=O)cc(C(F)(F)F)n(C)c3=O)coc2cc1[N+](=O)[O-] [Compound 1-201, 1-Methyl-3-[5-(methylthio)-6-nitrobenzo[b]furan-3-yl]-6-(trifluoromethyl)-1,2,3,4-tetrahydropyrimidine-2,4-dione]	completely inhibited the growth	completely inhibited the germination	completely inhibited the growth
CCOC(=O)C(C)Oc1ccc2occ(-n3c(=O)cc(C(F)(F)F)n(C)c3=O)c2c1 (stereo not drawn) [Compound 1-127, Ethyl 2-({3-[3-methyl-2,6-dioxo-4-(trifluoromethyl)-1,2,3,6-tetrahydropyrimidin-1-yl]benzo[b]furan-5-yl}oxy)propanoate]	completely inhibited the growth	completely inhibited the germination	completely inhibited the growth
CCOC(=O)C(C)Oc1cc2c(-n3c(=O)cc(C(F)(F)F)n(C)c3=O)coc2cc1Cl (stereo not drawn) [Compound 1-129, Ethyl 2-({6-chloro-3-[3-methyl-2,6-dioxo-4-(trifluoromethyl)-1,2,3,6-tetrahydropyrimidin-1-yl]benzo[b]furan-5-yl}oxy)propanoate]	completely inhibited the growth	completely inhibited the germination	completely inhibited the growth
Cn1c(C(F)(F)F)cc(=O)n(-c2coc3cc([N+](=O)[O-])c(F)cc23)c1=O [Compound 1-431]	completely inhibited the growth	completely inhibited the germination	completely inhibited the growth
